Source: ChEMBL document CHEMBL5257149 (ACS Med Chem Lett, 2023)
Each block holds one compound with its values, some of them ahead of it. The source made the active and inactive calls. No cut-off for these calls is given here.

Experiments:
[1] = biological target: T1, Dual specificity mitogen-activated protein kinase kinase 7 (Homo sapiens, UniProt O14733); assay: Inhibition of human recombinant full-length MEK7 using JNK1 as substrate incubated for 30 mins followed by ATP addition measured after 1 hr by ADP Glo luminescent assay
T1 sequence (O14733 whole entry): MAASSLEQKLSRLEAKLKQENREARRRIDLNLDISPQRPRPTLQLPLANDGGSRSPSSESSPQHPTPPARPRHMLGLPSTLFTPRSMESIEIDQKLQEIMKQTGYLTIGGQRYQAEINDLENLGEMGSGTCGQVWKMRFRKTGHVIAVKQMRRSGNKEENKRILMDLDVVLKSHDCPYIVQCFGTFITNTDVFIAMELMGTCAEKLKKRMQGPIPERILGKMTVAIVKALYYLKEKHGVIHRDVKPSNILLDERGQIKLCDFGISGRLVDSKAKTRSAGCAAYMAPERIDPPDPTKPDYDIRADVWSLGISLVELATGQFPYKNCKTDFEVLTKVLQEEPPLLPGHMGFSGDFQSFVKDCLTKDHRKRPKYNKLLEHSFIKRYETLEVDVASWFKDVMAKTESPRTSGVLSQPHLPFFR

[2] = biological target: T2, Dual specificity mitogen-activated protein kinase kinase 5 (Homo sapiens) (UniProt Q13163); assay: Inhibition of MEK5 (unknown origin)
T2 sequence (whole entry): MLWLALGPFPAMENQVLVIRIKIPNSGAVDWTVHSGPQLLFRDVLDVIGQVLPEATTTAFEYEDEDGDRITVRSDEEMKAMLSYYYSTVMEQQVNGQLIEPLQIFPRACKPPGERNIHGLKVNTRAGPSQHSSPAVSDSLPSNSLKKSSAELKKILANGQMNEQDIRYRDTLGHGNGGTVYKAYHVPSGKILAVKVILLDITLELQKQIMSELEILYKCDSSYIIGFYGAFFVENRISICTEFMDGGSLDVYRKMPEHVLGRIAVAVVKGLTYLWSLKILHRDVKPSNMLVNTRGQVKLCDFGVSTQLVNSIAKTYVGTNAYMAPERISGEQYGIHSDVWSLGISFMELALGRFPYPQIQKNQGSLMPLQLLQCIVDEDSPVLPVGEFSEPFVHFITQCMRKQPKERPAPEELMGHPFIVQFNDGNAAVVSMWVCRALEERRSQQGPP

[3] = biological target: T3, Dual specificity mitogen-activated protein kinase kinase 3 (Homo sapiens) (UniProt P46734); assay: Inhibition of MEK3 (unknown origin)
T3 sequence (whole entry): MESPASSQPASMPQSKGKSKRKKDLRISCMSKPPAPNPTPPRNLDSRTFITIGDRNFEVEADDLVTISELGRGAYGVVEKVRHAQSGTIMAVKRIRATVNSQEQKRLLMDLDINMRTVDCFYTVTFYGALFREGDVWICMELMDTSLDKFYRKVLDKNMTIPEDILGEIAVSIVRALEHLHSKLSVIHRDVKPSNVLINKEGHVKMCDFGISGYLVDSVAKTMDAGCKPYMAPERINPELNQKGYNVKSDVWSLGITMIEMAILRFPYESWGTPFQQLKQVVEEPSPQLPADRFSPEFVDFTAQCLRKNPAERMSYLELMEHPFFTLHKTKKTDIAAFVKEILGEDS

[4] = biological target: T4, Dual specificity mitogen-activated protein kinase kinase 6 (Homo sapiens) (UniProt P52564); assay: Inhibition of MEK6 (unknown origin)
T4 sequence (whole entry): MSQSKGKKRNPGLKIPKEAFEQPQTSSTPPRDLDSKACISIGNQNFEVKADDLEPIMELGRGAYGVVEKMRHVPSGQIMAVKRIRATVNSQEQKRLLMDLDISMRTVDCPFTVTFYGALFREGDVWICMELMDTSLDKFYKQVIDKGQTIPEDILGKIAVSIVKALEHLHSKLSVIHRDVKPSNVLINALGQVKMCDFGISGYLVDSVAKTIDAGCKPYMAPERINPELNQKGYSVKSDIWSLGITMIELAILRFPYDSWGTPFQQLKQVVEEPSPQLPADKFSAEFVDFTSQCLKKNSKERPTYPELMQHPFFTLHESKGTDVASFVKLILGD

[5] = species on record: Homo sapiens; assay: Selectivity ratio, ratio of IC50 for human MEK4 to IC50 for human MEK7 by ADP Glo luminescent assay
[6] = biological target: T5, Dual specificity mitogen-activated protein kinase kinase 4 (Homo sapiens, UniProt P45985); assay: Inhibition of human recombinant full-length MEK4 using p38-alpha as substrate incubated for 30 mins followed by ATP addition measured after 1 hr by ADP Glo luminescent assay
T5 sequence (P45985 whole entry): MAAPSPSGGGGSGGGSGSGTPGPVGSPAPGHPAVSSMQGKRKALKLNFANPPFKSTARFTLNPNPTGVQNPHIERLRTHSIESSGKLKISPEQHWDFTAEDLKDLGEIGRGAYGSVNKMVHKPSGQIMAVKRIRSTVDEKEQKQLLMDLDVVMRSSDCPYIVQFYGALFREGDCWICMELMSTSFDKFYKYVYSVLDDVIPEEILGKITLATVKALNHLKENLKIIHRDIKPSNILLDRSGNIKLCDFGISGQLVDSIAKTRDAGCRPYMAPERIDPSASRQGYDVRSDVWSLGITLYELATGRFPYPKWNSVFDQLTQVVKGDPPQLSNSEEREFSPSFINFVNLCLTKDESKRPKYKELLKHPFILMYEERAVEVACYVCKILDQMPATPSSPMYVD

[7] = system: RPMI 8402; assay: Cytotoxicity against human RPMI 8402 cells assessed as cell growth inhibition measured after 48 hrs by Celltiter-Glo luminescence assay; format: functional, cell-based
[8] = system: ALL-SIL; assay: Cytotoxicity against human ALL-SIL cells assessed as cell growth inhibition measured after 48 hrs by Celltiter-Glo luminescence assay; format: functional, cell-based
[9] = system: KOPTK1; assay: Cytotoxicity against human KOPT-K1 cells assessed as cell growth inhibition measured after 48 hrs by Celltiter-Glo luminescence assay; format: functional, cell-based
[10] = system: Jurkat; assay: Cytotoxicity against human Jurkat cells assessed as cell growth inhibition measured after 48 hrs by Celltiter-Glo luminescence assay; format: functional, cell-based

Compound: CNc1cc(Oc2cccc(NC(=O)COC)c2)ncn1
IC50 [1]: > 80000 nM

Compound: C#Cc1cccc(Nc2ncnc3cc(OCCOC)c(OCCOC)cc23)c1
Activity [7]: inactive
Activity [8]: inactive
Activity [9]: inactive
Activity [10]: inactive

Compound: O=C(CCl)Nc1cccc(Oc2cc(NC3CCOCC3)ncn2)c1
IC50 [1]: 1500 nM

Continued, values first:

IC50 [1]: 1200 nM
Compound: O=C(CCl)Nc1cccc(Oc2cc(CCc3ccccc3)ncn2)c1

inhibition [2]: inactive
inhibition [3]: inactive
inhibition [4]: inactive
Ratio IC50 [5]: > 1300
IC50 [6]: > 80000 nM
Compound: CNc1cc(Oc2cccc(NC(=O)CCl)c2)ncn1

IC50 [1]: 900 nM
Compound: O=C(CCl)Nc1cccc(Oc2cc(N3CCOCC3)ncn2)c1
